Consider two compounds from ChEMBL document CHEMBL1158301, “Isolation of guaianoid pigments from the gorgonian Calicogorgia granulosa” (1996).

Molecules are shown by their SMILES.

What all share (type): functional
What all share (conditions): read-out: IZ

One assay has as its system Bacillus subtilis. Put plainly: Antimicrobial activity against Bacillus subtilis at 25 ug/mL by paper disk assay.
For another assay, the system named is Escherichia coli. Put plainly: Antimicrobial activity against Escherichia coli at 25 ug/mL by paper disk assay.
The test system of another assay is Candida albicans. Put plainly: Antimicrobial activity against Candida albicans at 25 ug/mL by paper disk assay.

Regarding `Cc1cc(Cc2cc(C)c3cc(C(C)C)ccc(C)c2-3)c2c(C)ccc(C(C)C)cc1-2`, the zone of inhibition at 25 µg/mL in the assay with Bacillus subtilis and in the assay on Escherichia coli was 3 mm throughout.

As for `Cc1cc(-c2cc(C)c3cc(C(C)C)ccc(C)c2-3)c2c(C)ccc(C(C)C)cc1-2`, the zone of inhibition at 25 µg/mL with Bacillus subtilis was 8 mm; in the assay on Candida albicans, 5 mm; in the assay with Escherichia coli, 3 mm.
